Reference: patent US11649245B2, “Cyclopropylamine compound as LSD1 inhibitor and use thereof” (HELIOEAST PHARMACEUTICAL CO., LTD., priority 2018, dated 2023)
Structures can show the parent of a compound that is named as a salt.

Key:
[1] = In vivo pharmacokinetics in CD-1 mice; settings: male CD-1 mice
Description: CD-1 mice (male, 7-9 weeks old, Shanghai Slac)
The rodent pharmacokinetic characteristics after intravenous injection and oral administration of the compounds were tested by standard protocols, in the experiment, the candidate compounds were formulated into clear solutions and administrated to mice via a single intravenous injection and oral administration. The vehicle for intravenous injection and oral administration was a mixed solution of 10% of dimethyl sulfoxide and 90% of 10% hydroxypropyl β cyclodextrin. This project used four male CD-1 mice, two mice were administered intravenously, with a dose of 1 mg/kg, and plasma samples were collected at 0 hour (before administration) and 0.0833, 0.25, 0.5, 1, 2, 4, 8, 24 hours after administration. The other two mice were orally administered by gavage, with a dose of 2 mg/kg, plasma samples were collected at 0 hour (before administration) and 0.25, 0.5, 1, 2, 4, 8, 24 hours after administration, whole blood samples were collected within 24 hours, which were centrifuged at 3000 g for 15 minutes, and the supernatants were separated to obtain plasma samples, 4 times volume of acetonitrile solutions containing internal standard were added to precipitate the protein, the mixtures were centrifuged to obtain the supernatants, the supernatants were added with water of equal volume and centrifuged again to take the supernatant for injection, and the blood drug concentration was quantitatively analyzed by the LC-MS/MS analysis method, and pharmacokinetic parameters were calculated, such as max concentration (Cmax), clearance (CL), half-life (T1/2), volumes of distribution (Vdss), the area under the plasma concentration-time curve (AUC0-last), bioavailability (F) etc.

[2] = system: MC38 mouse colon cancer transplanted tumor model; assay: In vivo pharmacodynamic study on MC38 mouse colon cancer transplanted tumor model; set-up: species or system C57BL/6 mice; settings: compound 6 hydrochloride 1.5 mg/kg oral once a day, PD-1 mAb 5 mg/kg i.p. twice a week
Description: The purpose of this experiment was to evaluate the in vivo efficacy of the compounds of the present disclosure on MC38 mouse colon cancer transplanted tumor model.
Name: MC38 (Mouse Colon Cancer Cell)
Cell culture: 1640 medium containing 10% fetal bovine serum was used as culture medium, and the culture condition was 37° C., 5% carbon dioxide. The passage ratio was 1:2 to 1:3, the passage was performed 2-3 times per week.
0.1 mL (2×10^5 cells) of cells were subcutaneously inoculated into the right back of each mouse. On the same day, the animals were randomly grouped according to their body weight. […]
The experimental indicator is to investigate whether the tumor growth was inhibited, delayed or cured. Tumor diameters were measured with a vernier caliper twice a week. The tumor volume was calculated by the formula: V=0.5a×b^2, a and b respectively represent the long and short diameters of the tumor.
The efficacy of the compound was evaluated by relative tumor growth rate T/C (%). […] The relative tumor volume (RTV) was calculated based on the results of tumor measurement, the calculation formula was: RTV=Vt/V0, wherein V0 was the average tumor volume measured at the time of grouping administration (i.e., do), Vt is the average tumor volume measured at a single time, TRTV and CRTV were calculated from the data on the same day.

[3] = system: human small cell lung cancer NCI-H1417 xenograft tumor model; assay: In vivo pharmacodynamic study on NCI-H1417 subcutaneous xenograft tumor in CB-17 SCID mice; settings: compound 6 hydrochloride 1.5 mg/kg oral once a day, cisplatin 1 mg/kg i.p. twice a week
Description: The purpose of the experiment was to evaluate the in vivo efficacy of the compounds of the present disclosure on subcutaneous xenograft tumor of human small cell lung cancer NCI-H1417 cells in a CB-17 SCID mouse model.
Human small cell lung cancer NCI-H1417 cells (ATCC) were cultured in vitro in a single layer, the culture conditions were RPMI-1640 culture medium supplemented with 10% fetal bovine serum, 37° C. 5% CO2. When the cell saturation reached 80%-90%, the cells were collected, counted, and inoculated.
0.2 mL of 10×10^6 NCI-H1417 cells were subcutaneously inoculated into the right back of each mouse (PBS: Matrigel=1:1). Group administration was started when the average volume reached 100-150 mm^3.
The vehicle used in the experiment was 0.5% methylcellulose solution, the preparation method was: 5 g of methylcellulose was weighed and dissolved in 800 mL ultrapure water, stirred evenly and made up to 1000 mL with ultrapure water. The test substance was dissolved in a solvent and prepared into a uniform solution of a certain concentration, and stored at 4° C.
Cisplatin (Cisplatin, manufacturer Qilu Pharmaceutical Co., Ltd., 10 mg/bottle freeze-dried powder for injection, lot number 7D011A8) was added to 10 mL 0.9% NaCl to make a 1 mg/mL mother liquor, and stored at room temperature and protected from light. The mother liquor was aliquoted into 0.63 mL and stored at room temperature. 5.67 mL 0.9% NaCl was added to one of the 0.63 mL mother liquor to make a 0.1 mg/mL solution.
The experimental indicator is to investigate whether tumor growth was inhibited, delayed, or cured. Tumor diameters were measured with a vernier caliper twice a week. The tumor volume was calculated by the calculation formula: V=0.5a×b^2, a and b respectively represent the long and short diameters of the tumor.
The anti-tumor effect of the compounds was evaluated by TGI (%). TGI (%) can reflect the tumor growth inhibition rate. TGI (%) calculation: TGI (%)=[1-(the average tumor volume at the end of the administration in a treatment group—the average tumor volume at the beginning of the administration in the treatment group)/(the average tumor volume at the end of the treatment of the solvent control group—the average tumor volume at the beginning of the treatment of the solvent control group)]×100%.

## O=C(O)c1ccc(CN2CCC3(CC2)CC(N[C@@H]2C[C@H]2c2ccccc2)CO3)cc1 (stereo partly shown) [Hydrochloride of the compound 6]
[1]; IV 1 mg/kg, 1 mg/kg
  Half-life T1/2 (IV): 1.54 h
[1]; male, CD-1, mouse, plasma, iv, 1 mg/kg, study doses 1 mg/kg intravenous, 2 mg/kg oral, read-out: Clearance CL
  clearance: 40.2 mL/min/kg
[1]; male, CD-1, mouse, plasma, iv, 1 mg/kg, study doses 1 mg/kg intravenous, 2 mg/kg oral, read-out: Volumes of distribution Vdss
  Vd: 1.19 L/kg
[1]; male, CD-1, mouse, plasma, study doses 1 mg/kg intravenous, 2 mg/kg oral, route not given, read-out: Max concentration Cmax
  Cmax: 718 nM
[1]; male, CD-1, mouse, plasma, po, 2 mg/kg, PO 2 mg/kg, read-out: The area under the plasma concentration-time curve AUC0-last PO
  AUC(0-t): 0.691 µM·h
[1]; male, CD-1, mouse, plasma, po, 2 mg/kg, oral 2 mg/kg vs intravenous 1 mg/kg, read-out: Bioavailability F
  bioavailability: 33.2%
[2]; C57BL/6 mice, 28th day after administration
  Tumor volume (28th day): 1653 ± 893 mm^3
[2]; relative tumor growth rate, 28th day
  T/C: 92%
[3]; CB-17 SCID mice
  Tumor volume mean ± SEM (28th day): 187 ± 14 mm^3
[3]; tumor growth inhibition rate, 28th day
  TGI: 79.2%
